What is called Km is the substrate concentration at which the rate is half of its maximum.

Data set [1] concerns EhAGCK2. The data set is described as follows: ADP-Glo kinase assay with peptide substrates / ATP, EhAGCK2 WT. The format is biochemical, Entamoeba histolytica. The following applies: for Km / ATP Vmax: mean ± SE, n = 6. How it is done: (§1) The phosphorylation activity of kinases was measured using the ADP-Glo kinase assay kit according to the manufacturer’s protocol with few modifications (Promega, Madison, WI, Catalogue number V6930). Assays were performed in a Corning 384-well low-volume white round bottom polystyrene NBS microplate with a total volume of 32 μl in the ratio of 1:1:2, corresponding to the kinase reaction, ADP-Glo reagent, and detection reagent, respectively. The kinase reaction was performed in an 8 μl volume containing 4 μl of purified protein kinases, 2 μl of peptide substrate, and 2 μl of ATP (Promega, Madison, WI). The working concentration of all the kinase reaction components was prepared in the standard kinase assay buffer (40 mM Tris-Cl pH 7.5, 20 mM MgCl2, 2 mM DTT). Along with other controls, only buffer-negative controls without protein kinase, substrate, and ATP were included in the kinase assay. Kinase assay reactions in each well were started immediately by adding ATP. The reactions were allowed to continue for 1 h at 30°C in the incubator chamber without shaking. The kinase assay was quenched by adding 8 μl of ADP-Glo reagent in each well before adding ADP-Glo reagent. The reaction plate was incubated for 5 min at room temperature. Termination reactions were allowed to proceed for 40 min at room temperature. ADP-Glo reagent, in addition to quenching the reaction, scavenges the unconsumed ATP from the reaction. In the final step of the ADP-Glo kinase assay, 16 μl of kinase detection reagent was added to each well and incubated for 40 min to simultaneously convert ADP to ATP and allow the newly synthesised ATP to be measured using a luciferase/luciferin reaction. The luminescent signal generated was measured using a SpectraMax i3x Multi-Mode Microplate Reader (Molecular Devices), and it was proportional to the ADP concentration produced and correlated with the kinase activity.
(§2) Standard curves were constructed by plotting the saturating relative light units (RLU) for each sample against the concentration of the peptide substrate or ATP in the reaction, following the previously reported method. The slope of the standard curve was determined and used to convert the reaction rate velocities. Velocities were expressed in μM/min by calculating the rate of reaction (DY/DX) for each reaction, where DY represented the difference between the luminescence measurements at the beginning and end of the reaction, and DX denoted the duration of the reaction (total time of reaction: 60 min). The converted velocities were plotted against the substrate concentration, and the data were fitted to the Michaelis-Menten equation to determine Km and Vmax.
(§3) The kinase assay data presented here are the mean ± standard error (SE) of n≥3 of three independent experiments. The Km and Vmax were determined from a direct, nonlinear fit of [V] versus [S] plots using the Michaelis-Menten equation: V=Vmax[S]/Km+[S] using the GraphPad Prism 9.0 software package (GraphPad Software Inc., CA, USA). Additionally, the Microscale Thermophoresis (MST) experiments were conducted using the Monolith NT.11.5 instrument, with triplicate runs. Statistical comparisons were made using Student’s t-test. Differences in mean values were considered significant at *p-value≤0.05, **p-value≤0.01, ***p-value≤0.001, ****p-value≤0.0001.
(In ADP-Glo the light output rises with the ADP produced.)

The subject of data set [2] is EhAGCK1. The experiment in a line: ADP-Glo kinase assay with peptide substrates / ATP, EhAGCK1 WT. The following applies: for phosphorylation by EhAGCK1 WT (words): 1 hr. Format: biochemical, Entamoeba histolytica. How it is done:
as §1, §2, §3

Data set [3] has as its system autophosphorylation. The experiment in a line: ATP biotinylation kinase assay (autophosphorylation, SA-HRPO western blot). Format: biochemical, Entamoeba histolytica. The following applies: 4 μM kinase (EhPDK1 2 μM), 20 μM biotin-labelled ATP, 40 mM Tris-Cl pH 7.8, 10 mM MgCl2, 2 mM DTT, 30°C, 1 h. The method, then: ATP biotinylation assays were performed in the presence of 4 μM of EhAGCK1 (WT, T275D, and KDD1) and EhAGCK2 (WT, T274D, and KDD2) along with 2 μM of wild-type EhPDK1 in the presence of activation buffer 40 mM Tris-Cl pH 7.8, 10 mM MgCl2, and 2 mM DTT and incubated at 30°C for 1 h. The reaction was triggered by adding 20 μM biotin-labelled ATP (Catalogue NU-970-BIO, Jena Bioscience). 20 μl of the reaction was collected at the indicated time point and quenched by the addition of 4x SDS-loading dye. After gel electrophoresis, phosphorylated proteins were visualized by immunoblotting using HRPO-conjugated streptavidin (Invitrogen).
ATP biotinylated protein samples were separated by SDS-PAGE and then electro-transferred to PVDF membrane (Pall life sciences). The membrane was blocked overnight by 5% BSA (G-Biosciences) in TBS-T (TBS with 0.1% Tween 20) and stained with Ponceau S. This blocking process was done overnight at 4°C. The membrane was then incubated with 1:1000 dilution of HRPO-conjugated streptavidin (Invitrogen) at room temperature. Following antibody incubation, the blots were carefully cleaned with TBS-T. Band detection was carried out with a Millipore ECL kit.

Data set [4] has as its system HsGSK3 peptide. The data set is described as follows: ADP-Glo kinase activity of kinase variants with human GSK3 peptide in MgCl2 and MnCl2 buffers. Format: biochemical. The following applies: for kinase activity with HsGSK3 peptide in Mg2+ / without Mn2+ (words): kinase 0-80 μM. How it is done:
as §1, §3

Where [5] appears, read: S3 Table, ADP-Glo, Michaelis-Menten fit at various substrate concentrations, 20 μM kinase, 250 μM ATP, read-out: Peptide Km in the presence of EhAGCK2.
[6] abbreviates: S3 Table, ADP-Glo, Michaelis-Menten fit at various substrate concentrations, 20 μM kinase, 250 μM ATP, mean ± SE, n = 6, read-out: Peptide Km in the presence of EhAGCK1.

Values joined by “and” are separate entries in the source; they are usually repeats but may differ in a detail not shown here. Identical values can stand only once. “Also recorded” adds a separate entry of the source. Like-named read-outs stand apart in the source and are kept apart here.

As for “KSPTIDEIK [Hypothetical protein, peptide 133-141 of E. histolytica Hypothetical protein (EHI_025430)]”, the results for the Km in data set [1] (setting [5]) and in data set [2] (setting [6]) were 0.197 ± 0.08 µM and 2.56 ± 0.99 µM, respectively. In data set [2] (20 μM EhAGCK1 WT, 250 μM ATP), the “phosphorylation by EhAGCK1 WT (words)” value is reported as “notable phosphorylation by EhAGCK1”.

Consider “KTITPVVEDPCER [HEAT repeat domain-containing protein, peptide 661-673 of E. histolytica HEAT repeat domain-containing protein (EHI_050150)]”, for which the Km in data set [1] (setting [5]) turned out to be 0.262 ± 0.2 µM; in data set [2] (setting [6]), 3.62 ± 1.34 µM. In addition, the “phosphorylation by EhAGCK1 WT (words)” value in data set [2] (20 μM EhAGCK1 WT, 250 μM ATP) is on record as “notable phosphorylation by EhAGCK1”.

For the molecule “MAGIQLADEVTSVYNDF KLSHKYRYIV [Actophorin, peptide 1-27 of E. histolytica Actophorin (EHI_197480)]”, the Km in data set [1] (setting [5]) was 0.258 ± 0.09 µM; in data set [2] (setting [6]), 2.83 ± 1.69 µM.

Take “SALDNGTYSPLLSPTR [RhoGEF-1, peptide 236-251 of E. histolytica RhoGEF-1 (EHI_159500)]”: the Michaelis constant (Km) in data set [1] (setting [5]) worked out at 0.271 ± 0.17 µM; in data set [2] (setting [6]) it was 4.42 ± 2.75 µM.

Regarding “RRESVDYTNNK [Unconventional Myosin IB, peptide 754-764 of E. histolytica Unconventional myosin IB (EHI_110810)]”, the “phosphorylation by EhAGCK2 WT” value in data set [1] (20 μM EhAGCK2 WT, 250 μM ATP, 1 hr) was “recognised as substrates by EhAGCK2 WT; also recorded: accepted as substrates by EhAGCK2 WT”. Also, the Michaelis constant (Km) in data set [1] (ADP-Glo luminescence, 20 μM EhAGCK2 WT, 250 μM ATP, peptide 0-200 μM, 30°C, 60 min, standard buffer 40 mM Tris-Cl pH 7.5, 20 mM MgCl2, 2 mM DTT, Michaelis-Menten fit, read-out: Km (peptide substrate)) worked out at 1.34 ± 0.57 µM; in data set [1] (setting [5]) it was 1.34 ± 0.57 µM; in data set [2] (setting [6]), 3.63 ± 2.58 µM.

As to `Nc1ncnc2c1ncn2[C@@H]1O[C@H](COP(=O)(O)OP(=O)(O)OP(=O)(O)O)[C@@H](O)[C@H]1O` [ATP, reference compound], the “ATP Vmax” value was found to be 444.4 ± 18.5 µM/min in data set [1] (EhAGCK2 WT 20 μM, 50 μM EhCoactosin peptide substrate, ATP 0-1000 μM); 271.4 ± 30.5 µM/min in data set [1] (EhAGCK2 WT 20 μM, 50 μM HsGSK3 peptide substrate, ATP 0-1000 μM); 260.7 ± 9.4 µM/min in data set [2] (EhAGCK1 WT 20 μM, 50 μM HsGSK3 peptide substrate, ATP 0-1000 μM, mean ± SE, n = 6). Besides, the Km in data set [1] (EhAGCK2 WT 20 μM, 50 μM EhCoactosin peptide substrate, ATP 0-1000 μM, read-out: ATP Km) is 92.1 ± 16 µM; in data set [1] (EhAGCK2 WT 20 μM, 50 μM HsGSK3 peptide substrate, ATP 0-1000 μM, read-out: ATP Km) it was 292 µM and 291 µM; in data set [2] (EhAGCK1 WT 20 μM, 50 μM EhRhoGEF peptide substrate, ATP 0-1000 μM, mean ± SE, n = 6, read-out: ATP Km) it was 125 ± 16 µM; in data set [2] (EhAGCK1 WT 20 μM, 50 μM HsGSK3 peptide substrate, ATP 0-1000 μM, mean ± SE, n = 6, read-out: ATP Km), 242 ± 22.2 µM.

Take “ELDSDEEQKELER [Filamin-A interacting protein]”: the Km in data set [1] (setting [5]) stood at 0.147 µM; in data set [2] (ADP-Glo luminescence, 20 μM EhAGCK1 WT, 250 μM ATP, peptide 0-200 μM, 30°C, 60 min, standard buffer 40 mM Tris-Cl pH 7.5, 20 mM MgCl2, 2 mM DTT, Michaelis-Menten fit, mean ± SE, n = 6, read-out: Km (peptide substrate)), 3.28 ± 1.19 µM; in data set [2] (setting [6]), 3.28 ± 1.19 µM. For the same molecule, the “phosphorylation by EhAGCK1 WT (words)” value in data set [2] (20 μM EhAGCK1 WT, 250 μM ATP) is on record as “recognized as substrates by EhAGCK1 WT”; in data set [2] (20 μM EhAGCK1 WT, 250 μM ATP, listed as Filamin-A-interacting protein) it was “specifically phosphorylated”.

B1: KDD2: kinase-dead domain EhAGCK2 (K147A and D242A) (protein)
chain: MSVKTGWGIKEGGSWKTWKRRMFKLSEGKIEYFKDEGMTKKMGDIELSKVTHVLAVDQYKKRKNLIRIITPSRTYHISVNEESDRDSWVEAIRGMIGDNKEKKTQEEKEENKISMEDFDIITLLGKGAFGKVMLVKYKKEGKIYAMATVEKAQIIDSNEVEHILSEKVVLSQINNPFLVNMHYSFQTPTHLVFILDYCAGGELFSYLQKHPAGLPEVDVKFYAAQIVLALEHMHSTGIIYRAIKPENILFEKDGYLRMTDFGLAKSTKKGTTNTFCGTPEYLAPEVVEGLDYNEYIDWWGLGILIYEMLFTQSPFLAETMEELYENILQREPKYPSTKPITEECMNFINSLLIKEPSKRLTDPDQIKTHPWFNGFNFDDLYKKKLTPPYVPKIQSQTDTSNFDDEITQEEVDLKTGVEVVADNRFFTDFTYVQK
modifications: left off: His tag, end not stated, kept
Consider B1, for which the “autophosphorylation activity (words)” value in data set [3] is “remain inactive”.

B2: EhAGCK1 WT: recombinant full-length wild-type His-tagged AGC family kinase 1 of E. histolytica (protein)
chain: MEEKTQGWLMKEGGSWKSWKKRYFVLDNDTLYYYKEQDKKTLMGTMNLSLATHITAVDNYHKKYENIIRICTPSRTFHLSAANEEERLAWLTSIICHSEKTNICKPRISSVPVTQKDFDVKCLLGKGAYGKVFLVEMISTHEIFAMKTIEKKQIIEYEEIEHTMSERRILSKLHHPFLVNLYYSFQTPTHLFYIIDYCPGGEFYYYLQKNGKVSEEDAKFYAAQILLAIEHLHSSNIVYRDIKPENILIGADGYLRLTDFGLSKENVTKENTTSTFCGTPEYLAPEVVVGKDYSEPVDWWGFGILIYEMIHGHAPFTSEDIQQLFQKIIHDPVSFPSASYPSADCKECIVMLLEKDPEKRLTDPNRIKSHCWFKGFDWEGLFQKKLSPPFVPVLKDKTDTSNFNEDIINETAKIDEGEVVDSKDYFNDFTYCK
modifications: left off: His tag, end not stated, kept
notes: recombinant full-length wild-type His-tagged AGC family kinase 1 of E. histolytica
As to B2, the “autophosphorylation activity (words)” value in data set [3] is “exhibited autophosphorylation activity”; in data set [3] (listed as EhAGCK1) it was “able to accept biotin-ATP as substrate and underwent autophosphorylation”. In addition, the “kinase activity with HsGSK3 peptide in Mg2+ / without Mn2+ (words)” value in data set [4] (50 μM HsGSK3 peptide, 250 μM ATP) is given as “did not utilize the HsGSK3 peptide as a substrate”; in data set [4] (50 μM HsGSK3 peptide, 250 μM ATP, listed as EhAGCK1) it was “could not accept HsGSK3 peptide as substrate”. The “ion preference for kinase activity” value in data set [4] (MgCl2 versus MnCl2 buffer, HsGSK3 peptide) is “only active in the presence of MnCl2 buffer; also recorded: maximum kinase activity in the presence of Mn^2+”. Also, the “increase in kinase activity with HsGSK3 peptide in presence of Mn2+” value in data set [4] (Mn2+ present, 50 μM HsGSK3 peptide, 250 μM ATP) was 16 fold. Moreover, the “Fold change (MgCl2: MnCl2)” value in data set [4] (S1 Table, kinase activity in MgCl2 and MnCl2 buffers, 50 μM HsGSK3 peptide, 250 μM ATP, 60 min, 30°C) came out at 15.67.

Values taken from paper PMC11642994, “AGC family kinase of Entamoeba histolytica: Decoding the members biochemically” (PLOS Pathogens, 2024).
